Measured values taken from the OligoGym collection.
After the bases stand the sugars from the 5' end (letter, count) and the backbone: PS all phosphorothioate, else s phosphorothioate and o phosphodiester by linkage. Methylation of C is not given here. e = 2'-O-(2-methoxyethyl) (MOE); k = constrained ethyl (cEt); d = 2'-deoxy (DNA); m = 2'-O-methyl

Biological target: HSD17B13
Details: ASO, HepaRG

Row | Sequence | target mRNA inhibition (1 µM) [%] | also measured
1 | GTATCTTATAAGACTA (sugars k3 d1 m1 d8 k3, PS) | 79 | target mRNA inhibition (0.02 µM): 13%; target mRNA inhibition (0.078 µM): 26%; target mRNA inhibition (0.313 µM): 39%; target mRNA inhibition (1.25 µM): 66%; target mRNA inhibition (5 µM): 84%
2 | GTATCTTATAAGACTA (sugars k3 d10 k3, PS) | 81 | target mRNA inhibition (0.02 µM): 50%; target mRNA inhibition (0.078 µM): 61%; target mRNA inhibition (0.313 µM): 68%; target mRNA inhibition (1.25 µM): 87%; target mRNA inhibition (5 µM): 95%
3 | GTATCTTATAAGACTA (sugars kkdddddddddkekek, PS) | 61 | –
4 | GTATTCCATAAAGCTG (sugars k3 d10 k3, PS) | 10 | –
5 | GTATTCCATCTATCAG (sugars k3 d9 k3 e1, PS) | 51 | –
6 | GTATTTACTTTTAGGG (sugars k3 d10 k3, PS) | 61 | –
7 | GTATUCCATCTATCAG (sugars k3 d1 m1 d8 k3, PS) | 41 | –
8 | GTCACCTTTCATAATG (sugars k3 d9 k3 e1, PS) | 21 | –
9 | GTCACCTTTCATAATG (sugars k3 d10 k3, PS) | 45 | –
10 | GTCAGTAGAGAGCATA (sugars k3 d10 k3, PS) | 85 | target mRNA inhibition (0.02 µM): 0%; target mRNA inhibition (0.078 µM): 0%; target mRNA inhibition (0.313 µM): 27%; target mRNA inhibition (1.25 µM): 78%; target mRNA inhibition (5 µM): 74%
11 | GTCCAAAAGTGTCCTC (sugars k3 d10 k3, PS) | 35 | –
12 | GTCCACTTTTGGTGGA (sugars k3 d10 k3, PS) | 14 | –
13 | GTCCTTTGTATTTCGC (sugars k3 d10 k3, PS) | 45 | –
14 | GTCGGTCACCTTTCAT (sugars k3 d9 k3 e1, PS) | 68 | –
15 | GTCTAAACATCTCTGG (sugars k3 d10 k3, PS) | 58 | –
16 | GTCTACCTCTAAGTTA (sugars kkdddddddddkekek, PS) | 15 | –
17 | GTCTGCCTGCCTATTC (sugars k3 d10 k3, PS) | 53 | –
18 | GTGCATCTTAAGATAC (sugars k3 d1 m1 d8 k3, PS) | 40 | –
19 | GTGCCAAACCAATGTT (sugars k3 d9 k3 e1, PS) | 56 | –
20 | GTGCTAAGTAGTAATT (sugars k3 d10 k3, PS) | 58 | –

Row | Sequence | target mRNA inhibition (1 µM) [%] | also measured
21 | GTGGATTACATACAAG (sugars k3 d10 k3, PS) | 57 | –
22 | GTGGCATGGCTACAGA (sugars k3 d1 m1 d8 k3, PS) | 49 | –
23 | GTGTAAATAAGTTCTC (sugars k3 d10 k3, PS) | 61 | –
24 | GTTAAAACTTCATTCC (sugars k3 d10 k3, PS) | 5 | –
25 | GTTAACCTGCAGCAGA (sugars k3 d10 k3, PS) | 51 | –
26 | GTTACATCACCCACTT (sugars k3 d10 k3, PS) | 41 | –
27 | GTTAGAATAGTCTTCA (sugars k3 d1 m1 d8 k3, PS) | 42 | –
28 | GTTAGCAAAACACTTG (sugars k3 d10 k3, PS) | 71 | target mRNA inhibition (0.02 µM): 1%; target mRNA inhibition (0.078 µM): 15%; target mRNA inhibition (0.313 µM): 44%; target mRNA inhibition (1.25 µM): 68%; target mRNA inhibition (5 µM): 81%
29 | GTTAGTATAGTTATCT (sugars k3 d1 m1 d8 k3, PS) | 52 | –
30 | GTTAGTATAGTTATCT (sugars k3 d9 k3 e1, PS) | 71 | –
31 | GTTAGTATAGTTATCT (sugars k3 d10 k3, PS) | 66 | target mRNA inhibition (0.02 µM): 0%; target mRNA inhibition (0.078 µM): 17%; target mRNA inhibition (0.313 µM): 40%; target mRNA inhibition (1.25 µM): 74%; target mRNA inhibition (5 µM): 86%
32 | GTTATTCTCTTGACAA (sugars k3 d10 k3, PS) | 42 | –
33 | GTTCTGATGTCAGACC (sugars k3 d10 k3, PS) | 55 | –
34 | GTTCTTGTTGATATTC (sugars k3 d10 k3, PS) | 84 | target mRNA inhibition (0.02 µM): 35%; target mRNA inhibition (0.078 µM): 51%; target mRNA inhibition (0.313 µM): 77%; target mRNA inhibition (1.25 µM): 92%; target mRNA inhibition (5 µM): 96%
35 | GTTCTTGTTGATATTC (sugars kkdddddddddkekek, PS) | 66 | –
36 | GTTCUTGTTGATATTC (sugars k3 d1 m1 d8 k3, PS) | 70 | –
37 | GTTGACCTCAAATGTC (sugars k3 d10 k3, PS) | 0 | –
38 | GTTGAGTAGTGTAAGC (sugars k3 d10 k3, PS) | 53 | –
39 | GTTGCACCGTTTTGGG (sugars k3 d9 k3 e1, PS) | 45 | –
40 | GTTGCACCGTTTTGGG (sugars k3 d10 k3, PS) | 56 | –
